# US20140038953A1, “COMPOSITIONS AND METHODS FOR CARDIOVASCULAR DISEASE” (THE GENERAL HOSPITAL CORPORATION, priority 2011, published 2014)
# “Also recorded” adds a separate entry of the source.
# Tested on: LDLR−/− mice
# Assay: Vascular calcification in LDLR−/− mice on high fat diet (Osteosense, Alizarin red)
# Format: in vivo
# Details: high fat diet 20 weeks, 2.5 mg/kg ip daily, vs vehicle
# Description: Fluorescence reflectance imaging (FRI), was performed as previously described. (Aikawa, E., et al. Osteogenesis associates with inflammation in early-stage atherosclerosis evaluated by molecular imaging in vivo. Circulation 116, 2841-2850 (2007); and Aikawa, E., et al. Multimodality molecular imaging identifies proteolytic and osteogenic activities in early aortic valve disease. Circulation 115, 377-386 (2007).) Animals received 150 μl of OsteoSense 680 and 150 μl of ProSense 750 via tail vein injection 24 hours before euthanasia. After dissection, aortae were subjected to ex vivo near infrared fluorescence reflectance imaging using an Odyssey Imaging System (LI-COR Biotechnology, Lincoln, Nebr.), with integrated signal intensities determined for regions of interest using software version 3.0.16.
# Aortas were either immediately embedded and cryopreserved using optimal cutting-temperature medium (Sakura Tissue-Tek, Zoeterwoude, The Netherlands) or fixed in paraformaldehyde and embedded in parafin. The presence of calcification was determined by staining tissue sections with Alizarin red or Von Kossa. Lipid accumulation in tissue sections was visualized by staining with Oil Red O. Liver sections were prepared from paraformaldehyde-fixed tissue and stained with hematoxylin and eosin. […]
smiles,measurement,setting,value
"c1ccc2c(-c3cnn4cc(-c5ccc(N6CCNCC6)cc5)cnc34)ccnc2c1 [Compound 13, 4-[6-(4-piperazin-1-ylphenyl)pyrazolo[1,5-a]pyrimidin-3-yl]quinoline]","vascular calcification / osteogenic activity (fluor-labeled bisphosphonate uptake, Alizarin red)",,significantly less abundant; also recorded: reduced vascular calcification throughout the aortae; also recorded: severely diminished evidence of osteogenesis
same,"vascular calcification / osteogenic activity (fluor-labeled bisphosphonate uptake, Alizarin red)",listed as BMP inhibitor positive control compound,can reduce vascular calcification
